# Assay results taken from patent US11981686B2, “Urea compound having substituent” (DAIICHI SANKYO COMPANY, LIMITED, priority 2019, dated 2024).
# Biological target: SIRT6 enzyme (Homo sapiens, UniProt Q8N6T7)
# Assay: Measurement of deacetylation activity (SIRT6, AlphaLISA, H3K9(Ac) peptide)
# Format: biochemical
# Settings: SIRT6 25 ng/mL, H3K9(Ac) biotin peptide 2 nM, NAD 10 μM, room temperature 30 minutes, duplicate
# How it was run: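 SIRT6 (25 ng/mL final) in Tris-HCl pH 8.0 buffer with compound (e.g. 0.046–100 μM final) reacted with biotin-H3K9(Ac) peptide (2 nM) and NAD+ (10 μM), 30 min, room temperature. Stopped with nicotinamide plus AlphaLISA anti-unmodified H3K9/K27 beads, 60 min; EC150 (150% relative activity) from sigmoidal fit.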
# Sequence of SIRT6 enzyme (Q8N6T7 whole entry, species assumed): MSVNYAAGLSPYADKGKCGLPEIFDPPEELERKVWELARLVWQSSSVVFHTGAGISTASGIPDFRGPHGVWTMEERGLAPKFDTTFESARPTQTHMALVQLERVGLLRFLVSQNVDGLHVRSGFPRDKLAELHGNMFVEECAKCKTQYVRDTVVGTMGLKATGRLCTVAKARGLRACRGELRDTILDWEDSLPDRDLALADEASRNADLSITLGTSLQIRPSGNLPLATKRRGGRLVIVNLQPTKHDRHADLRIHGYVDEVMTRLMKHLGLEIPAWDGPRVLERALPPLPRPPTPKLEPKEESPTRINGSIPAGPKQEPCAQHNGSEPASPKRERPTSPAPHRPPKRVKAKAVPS
row,Structure (SMILES),EC150 (the concentration of the compound showing a relative enzyme activity of 150%)
1,"CNC(=O)Nc1nc2c(s1)C1CN(S(C)(=O)=O)CC(C2)N1c1nc(-c2ccc(F)cc2)no1 (stereo not drawn) [Example 31, N-{10-[3-(4-fluorophenyl)-1,2,4-oxadiazol-5-yl]-6-(methanesulfonyl)-4,5,6,7,8,9-hexahydro-4,8-epimino[1,3]thiazolo[5,4-d]azocin-2-yl}-N′-methylurea]",2.5 μm
2,"CCOc1ccc2oc(N3[C@@H]4COC[C@H]3c3sc(NC(=O)NCC(C)(C)O)nc3C4)nc2c1 [Example 40, N-[(4S,8S)-10-(5-ethoxy-1,3-benzoxazol-2-yl)-4,7,8,9-tetrahydro-5H-4,8-epiminooxocino[5,4-d][1,3]thiazol-2-yl]-N′-(2-hydroxy-2-methylpropyl)urea]",3.1 μm
3,"O=C(Nc1nc2c(s1)[C@@H]1COC[C@H](C2)N1c1nc(C2(C(F)(F)F)CC2)no1)N[C@@H]1CCOC1 [Example 37, N-[(3R)-oxolan-3-yl]-N′-[(4S,8S)-10-{3-[1-(trifluoromethyl)cyclopropyl]-1,2,4-oxadiazol-5-yl}-4,7,8,9-tetrahydro-5H-4,8-epiminooxocino[5,4-d][1,3]thiazol-2-yl]urea]",4.6 μm
4,"COc1ccc2oc(N3[C@@H]4COC[C@H]3c3sc(NC(=O)N[C@H](C)CO)nc3C4)nc2c1 [Example 38, N-[(2R)-1-hydroxypropan-2-yl]-N′-[(4S,8S)-10-(5-methoxy-1,3-benzoxazol-2-yl)-4,7,8,9-tetrahydro-5H-4,8-epiminooxocino[5,4-d][1,3]thiazol-2-yl]urea]",2 μm
5,"Cn1cnc(CNC(=O)Nc2nc3c(s2)CN(c2nc(C4CCC(F)(F)CC4)no2)CC3)n1 [Example 106, N-{5-[3-(4,4-difluorocyclohexyl)-1,2,4-oxadiazol-5-yl]-4,5,6,7-tetrahydro[1,3]thiazolo[5,4-c]pyridin-2-yl}-N′-[(1-methyl-1H-1,2,4-triazol-3-yl)methyl]urea]",2.4 μm
6,"C[C@@H](CO)NC(=O)Nc1nc2c(s1)[C@@H]1COC[C@H](C2)N1c1ncc(-c2cccc(OC(F)F)n2)o1 [Example 169, N-[(4S,8S)-10-{5-[6-(difluoromethoxy)pyridin-2-yl]-1,3-oxazol-2-yl}-4,7,8,9-tetrahydro-5H-4,8-epiminooxocino[5,4-d][1,3]thiazol-2-yl]-N′-[(2S)-1-hydroxypropan-2-yl]urea]",0.66 μm
7,"O=C(Nc1nc2c(s1)CN(c1nccc(C3CCCOC3)n1)CC2)N[C@H]1C[C@H](O)C1 (stereo partly drawn) [Example 192, N-[(1r,3r)-3-hydroxycyclobutyl]-N′-{5-[4-(oxan-3-yl)pyrimidin-2-yl]-4,5,6,7-tetrahydro[1,3]thiazolo[5,4-c]pyridin-2-yl}urea]",0.44 μm
8,"Cn1ccc(CNC(=O)Nc2nc3c(s2)[C@@H]2COC[C@H](C3)N2c2ncc(-c3cccc(OC(F)F)n3)o2)cc1=O [Example 178, N-[(4S,8S)-10-{5-[6-(difluoromethoxy)pyridin-2-yl]-1,3-oxazol-2-yl}-4,7,8,9-tetrahydro-5H-4,8-epiminooxocino[5,4-d][1,3]thiazol-2-yl]-N′-[(1-methyl-2-oxo-1,2-dihydropyridin-4-yl)methyl]urea]",0.1 μm
9,"C[C@@H](O)CNC(=O)Nc1nc2c(s1)CN(c1cc(C3CCC(F)(F)CC3)on1)CC2 [Example 153, N-{5-[5-(4,4-difluorocyclohexyl)-1,2-oxazol-3-yl]-4,5,6,7-tetrahydro[1,3]thiazolo[5,4-c]pyridin-2-yl}-N′-[(2R)-2-hydroxypropyl]urea]",2.1 μm
